Results on four compounds are retold here after patent EP4778511A1, “PHARMACEUTICAL COMPOSITION, DRUG-LOADED ROD CORE, IMPLANT, PREPARATION METHOD THEREFOR, AND USE THEREOF” (SHENYANG XINGHUA PHARMACEUTICAL TECHNOLOGY CO., LTD, priority 2023, dated 2025).

Like-named read-outs stand apart in the source and are kept apart here.

The conditions of series [1]: reagent table, cited from earlier work.
Series [2] can be described thus: Average particle size and PDI of paliperidone after wet grinding (nanonization). The class given is physicochemical. On the procedure: Active pharmaceutical ingredient: stabilizer = 5:1. The ball mill speed was 400 r·min^-1, the grinding media was 0.2 mm of zirconia beads with a volume of 20 mL, and the grinding time was 50 min. The effects of stabilizer types Poloxamer 188 (P188), Tween 80, Poloxamer 407 (P407), SDS, HPMC on the average particle size and PDI (PDI is a dimensionless value reflecting the width of particle size distribution, ranging from 0 to 1, a smaller value indicates a more uniform and narrower particle size distribution) of the active pharmaceutical ingredient after grinding are investigated. Table 29 Effects of different stabilizers on average particle size and PDI
Active pharmaceutical ingredient: stabilizer = 5:1. The ball mill speed was 400 r·min^-1, Poloxamer 188 was used as the stabilizer, the grinding media was 20 mL, and the grinding time was 50 min. The effects of 0.1 mm, 0.2 mm, and 0.3 mm zirconia beads on the average particle size and PDI of the active pharmaceutical ingredient after grinding were investigated. Table 30 Effects of different types of grinding media on average particle size and PDI
Active pharmaceutical ingredient: stabilizer = 5:1. The ball mill speed was 400 r·min^-1, Poloxamer 188 was used as the stabilizer, the grinding media was 0.1 mm zirconia beads. The effects of grinding time for 15 min, 25 min, 35 min, 45 min, 50 min, 60 min on the average particle size and PDI of the active pharmaceutical ingredient after grinding were investigated. Table 31 Effects of different grinding time on average particle size and PDI

[3] abbreviates: stabilizer HPMC, 0.2 mm zirconia beads, grinding 50 min.
Where [4] appears, read: stabilizer P188, 0.1 mm zirconia beads, grinding 15 min.
The mark [5] stands for this setting: stabilizer P188, 0.1 mm zirconia beads, grinding 25 min.
[6] abbreviates: stabilizer P188, 0.1 mm zirconia beads, grinding 35 min.
[7] abbreviates: stabilizer P188, 0.1 mm zirconia beads, grinding 45 min.
Where [8] appears, read: stabilizer P188, 0.1 mm zirconia beads, grinding 50 min.
Where [9] appears, read: stabilizer P188, 0.1 mm zirconia beads, grinding 60 min.
The mark [10] stands for this setting: stabilizer P188, 0.2 mm zirconia beads, grinding 50 min.
Where [11] appears, read: stabilizer P188, 0.3 mm zirconia beads, grinding 50 min.
The mark [12] stands for this setting: stabilizer P407, 0.2 mm zirconia beads, grinding 50 min.
[13] abbreviates: stabilizer SDS, 0.2 mm zirconia beads, grinding 50 min.
The mark [14] stands for this setting: stabilizer Tween, 0.2 mm zirconia beads, grinding 50 min.

In the case of `CC(=O)O[C@H]1C(=O)[C@@]2(C)[C@H]([C@H](OC(=O)c3ccccc3)[C@]3(O)C[C@H](OC(=O)[C@H](O)[C@@H](NC(=O)c4ccccc4)c4ccccc4)C(C)=C1C3(C)C)[C@]1(OC(C)=O)CO[C@@H]1C[C@@H]2O` [Paclitaxel], the solubility entry in series [1] (in water) is “Paclitaxel (purity 99%), molecular weight: 853.92, insoluble in water”.

Turning to `N[C@@H](Cc1cc(I)c(Oc2cc(I)c(O)c(I)c2)c(I)c1)C(=O)O` [levothyroxine sodium], the solubility entry in series [1] is on record as “levothyroxine sodium (purity 99%), molecular weight: 800.87, solubility: 150 µg/ml”.

Regarding `C#C[C@]1(O)C=C[C@H]2[C@@H]3CCC4=CC(=O)CC[C@@H]4[C@H]3CC[C@@]21CC` [Gestodene], the solubility entry in series [1] (in water) is “Gestodene (purity 98%), molecular weight: 310.43, insoluble in water”.

On to `Cc1nc2n(c(=O)c1CCN1CCC(c3noc4cc(F)ccc34)CC1)CCCC2O` (stereo not shown) [Paliperidone], for which the Average particle size in series [2] (setting [3]) worked out at 330 nm; in series [2] (setting [4]), 820 nm; in series [2] (setting [5]), 646 nm; in series [2] (setting [6]), 430 nm; in series [2] (setting [7]) it was 246 nm; in series [2] (setting [8]) it was 220 nm. For the same compound, the Average particle size in series [2] (setting [9]) is listed as 253 nm; in series [2] (setting [10]), 240 nm; in series [2] (setting [11]) it was 420 nm; in series [2] (setting [12]), 417 nm; in series [2] (setting [13]) it was 320 nm; in series [2] (setting [14]), 250 nm. The PDI in series [2] (setting [3]) is recorded as 0.18; in series [2] (setting [4]) it was 0.13; in series [2] (setting [5]), 0.14; in series [2] (setting [6]) it was 0.09; in series [2] (setting [7]), 0.08; in series [2] (setting [8]), 0.06. In addition, the PDI was 0.12 in series [2] (setting [9]); 0.15 in series [2] (setting [10]); 0.25 in series [2] (setting [11]); 0.26 in series [2] (setting [12]); 0.21 in series [2] (setting [13]); 0.07 in series [2] (setting [14]). The solubility entry in series [1] is recorded as “Paliperidone (purity 98%), molecular weight: 426.48, solubility: 30 µg/ml”.
